The melting point is the temperature of the solid-liquid transition. For `Oc1cc2c3ccc(O)c(O)c3n(Cc3ccc(Br)cc3)c2cc1O`, the melting point was 249 to 252 °C.

The compound `CC(C)C1(C)N=C2c3nc4occc4cc3C(=O)N2C1=O` (centres undefined) gave a melting point of 193 to 205 °C.

`CC(Oc1ncn(-c2cccc(C(F)(F)F)c2)n1)C(=O)N(C)C` (centres undefined) came in with a melting point of 126 to 127 °C.

The compound `COc1cc(CC#N)c(CCNC(=O)C(F)(F)F)cc1OC` registered a melting point of 131 °C.

The compound `O=C(OCc1ccccc1)C1=CCC2C(C(O)c3ccccc3)C(=O)N12` (centres undefined) came in with a melting point of 124 °C.

The compound `C=CC(=O)OCCCCCCCCCCCOc1ccc(O)cc1` came in with a melting point of 72 to 74 °C.

In turn, `COc1ccc2c(c1)C(OC(C)C)=C(C(=O)O)S2=O` (centres undefined) yielded a melting point of 184 to 187 °C.

Turning to `COc1ccc(-c2nc(C)[nH]c3cc(-c4ccccc4)nc2-3)cc1`, the melting point lay within 225 to 227 °C.

In turn, `CC(C)(S)CNC(=O)c1nccnc1C(=O)O` registered a melting point of 141 to 144 °C.

As to `CC(C)OC(=O)c1cc(-c2nn(C)c(C(F)(F)F)c2Cl)c(F)cc1Cl`, the melting point amounted to 69 °C.

In turn, `C[C@H](Cn1ncnn1)n1nnc2cc3c(=O)n(C4CC4)nnc3cc2c1=O` yielded a melting point of 190 to 192 °C.

Consider `COC(=O)c1cncn1C1CC2CCCCC2c2ccccc21` (centres undefined), for which the melting point is 140 °C.

Compound `COc1ccc(OC)c2c1CC[C@](O)(C(C)=O)C2` gave a melting point of 117 to 120 °C.

As to `CN(C)CCCOc1ccc(C(=O)NN)cn1`, the melting point lay in the range of 81 to 83 °C.

Consider `O=C(Nc1ccc2cc(CN3CCCC3)ccc2c1)c1ccc(-c2ccc(F)cc2)nc1`, for which the melting point was 238 to 240 °C.

Turning to `CNC(=S)N1CC(Oc2cccc(C(F)(F)F)c2)C1`, the melting point was 79 to 86 °C.

With `COc1ccc(Cn2cc(C(=O)O)c(=O)c3ccc(N4CCNCC4)cc32)cc1`, the melting point fell in the range of 230 to 235 °C.

For `c1ccc(CNc2nc3cc(-c4ccccc4)nnc3c3ccccc23)cc1`, the melting point was in the range of 207 to 209 °C.

Turning to `O=C(NC1CCC(CCN2CCN(c3nccc4c3OCC4)CC2)CC1)C(O)C(F)(F)F` (racemic), the melting point was 185 °C.

The compound `NS(=O)(=O)c1cccc(-c2noc(-c3cnn4ccc(-c5ccc(Cl)cc5)nc34)n2)c1` had a melting point of 223 °C.

As to `COc1ccccc1Oc1cccc2c1NC(=O)C2`, the melting point fell in the range of 145 to 147 °C.

Regarding `COc1cc(C)c(C(O)c2c(Cl)c(Cl)nc(Cl)c2C(F)(F)F)c(OC)c1OC` (centres undefined), the melting point lay in the range of 131 to 135 °C.

As for `Cc1nc(-c2ccc(Cl)cc2)c(CC(Cl)C(=O)O)o1` (centres undefined), the melting point was in the range of 208 to 209 °C.

`Cc1nnc2n1-c1sc(C#CCn3c(=O)n(C)c(=O)c4ccccc43)cc1C(c1ccccc1Cl)=NC2` had a melting point of 167 to 170 °C.

`CS(=O)(=O)c1ccc(-c2cnn(Cc3ccc(F)cc3)c(=O)c2-c2ccc(F)cc2)cc1` displayed a melting point of 153 to 154 °C.

Compound `Cn1cc(-c2nnn[nH]2)c(=O)c2ccccc21` showed a melting point of 306 °C.

`O=C(O)c1cn(-c2nccs2)c2c(F)c(F)c(F)cc2c1=O` returned a melting point of 198 to 200 °C.

The compound `C=C(Br)CN1Cc2cccc3[nH]c(=O)n(c23)CC1C` (centres undefined) had a melting point of 150 °C.

`CN(C)C1(c2ccccc2)CCC(c2cccs2)(c2[nH]c3ccccc3c2CCc2ccncc2)CC1` (centres undefined): the melting point was 54 to 60 °C.

Compound `CC1(C)c2ccc(CCN3CCN(c4noc5ccccc45)CC3)cc2C(C)(C)C1NS(C)(=O)=O` (centres undefined) gave a melting point of 75 to 80 °C.

For `CCCCc1oc2ccccc2c1C(=O)Nc1ccc(-c2ccc(O)cc2)cc1`, the melting point lay in the range of 181 to 183 °C.

Consider `CC(C)(O)c1ccc(CC(=O)Nc2cccnc2Oc2cccc(C#N)c2)cc1`, for which the melting point was 97 to 99 °C.

Compound `COC(=O)CCCc1cc2cc(Cl)ccc2n1S(=O)(=O)c1ccc(C(C)C)cc1` came in with a melting point of 95 to 97 °C.

In turn, `O=[N+]([O-])c1ccc(Nc2ccccc2)s1` came in with a melting point of 186 °C.

Take `CCCC1(C)C(=O)NC(=O)N1c1ccc(C)cc1` (centres undefined): the melting point amounted to 158 °C.

Compound `COc1cc(NC(=O)CC23CC4CC(CC(C4)C2)C3)c(C)c([N+](=O)[O-])c1` returned a melting point of 141 to 142 °C.

`CCC(C)(C)Nc1c(N(Cc2ccc(Cl)cc2Cl)C(C)=O)c(=O)c1=O` came in with a melting point of 114 to 116 °C.

Compound `Cn1cc(C2=C(c3cn(CCCBr)c4ccccc34)C(=O)OC2=O)c2ccccc21` showed a melting point of 168 to 170 °C.

In the case of `CCOC(=O)c1cc(OCC)c(OCC)cc1N`, the melting point was in the range of 69 to 71 °C.

For the compound `OC(CCn1ccnc1)c1ccc2c(c1)Cc1ccccc1-2` (centres undefined), the melting point lay in the range of 144 to 146 °C.

Turning to `O=C(O)CC[C@H](NC(=O)N1CCc2cc(S(=O)(=O)N3CCN(c4cccc(Cl)c4)CC3)ccc21)C(=O)O`, the melting point lay in the range of 181 to 182 °C.

`O=S(=O)(O)c1ccc2c(c1)CNC(C(Cl)(Cl)Cl)O2` (centres undefined): the melting point is more than 260 °C.

Compound `Cc1c(Cc2ccccc2)c(=O)oc2cc(OC(C)c3nnn[nH]3)cc(OC(C)c3nnn[nH]3)c12` (centres undefined) registered a melting point of 91 to 104 °C.

The compound `O=C(O)CC(CC(=O)O)c1ccc2oc3c(c2c1)CCCC3` gave a melting point of 165 to 170 °C.

For `COc1cccc(OC(=O)NC2C(=O)N(CCC(C)C)c3cc(Cl)ccc3N(c3ccccc3)C2=O)c1` (centres undefined), the melting point lay within 129 to 130 °C.

Compound `COC(=O)c1cc(C(C)=O)c(C(F)(F)F)cc1N` yielded a melting point of 118 to 121 °C.

On to `N#Cc1cc(O)ccc1[N+](=O)[O-]`, for which the melting point lay in the range of 200 to 202 °C.

Take `CC(C)(C)c1nc2cc(N3CCCCC3)c(N)cc2s1`: the melting point lay within 172 to 175 °C.

For the compound `C#Cc1c(-n2ccnc2)nc(C)nc1C(F)(F)F`, the melting point was 121 to 122 °C.

`COc1ccn2nc(-c3ccccc3)c(-c3ccc(=O)n(C4CCN(C)CC4)n3)c2c1` registered a melting point of 154 to 155 °C.

With `CC1(OCc2ccccc2F)COC(c2ccco2)OC1` (centres undefined), the melting point was in the range of 67.5 to 69 °C.

The compound `CC1(C)CC(O)C(C)(C)c2cc(C=O)ccc21` (centres undefined) had a melting point of 76 to 78 °C.

For the compound `COc1ccc(OC)c(C(O)CNC(=O)CN)c1` (centres undefined), the melting point was 106 to 107 °C.

In the case of `CCN(CC)C(=O)c1nc(-c2c(Cl)cc(C(F)(F)F)cc2Cl)[nH]c1C#N`, the melting point was 195 to 197 °C.

With `CC(Nc1c(Nc2ccc(S(N)(=O)=O)cc2)c(=O)c1=O)C(C)(C)C` (centres undefined), the melting point is 233 to 235 °C.

In turn, `CCOCC(=O)OCC(=O)C1(O)CCC2C3CC(C)C4=CC(=O)C=CC4(C)C3C(O)CC21C` (centres undefined) came in with a melting point of 229 °C.

As to `COC1C(OC(N)=O)CCC2(CO2)C1C1(C)OC1CC=C(C)C` (centres undefined), the melting point lay in the range of 125 to 126 °C.

For `O=C1c2ccccc2C(=O)c2cc(S(=O)(=O)O)ccc21`, the melting point is 208 to 211 °C.

`COc1ccc(Cc2cc(O)ccc2OC)cn1` showed a melting point of 121 to 124 °C.

Turning to `CCOC(=O)[C@@H]1CSCCCCCCCC(CSC(C)=O)C(=O)N1` (some centres undefined), the melting point lay in the range of 193 to 196 °C.

Turning to `CCCC(C(=O)O)n1c(=O)c(=O)[nH]c2ccccc21` (centres undefined), the melting point lay within 272 to 275 °C.

As for `O=C(O)CCN1CCN(c2ccc([N+](=O)[O-])cc2)CC1`, the melting point was in the range of 250 to 252 °C.

`CCOc1ccc(CNC(=O)n2cc(F)c(=O)[nH]c2=O)cc1OC`: the melting point stood at 153 °C.

In turn, `COc1cc(Nc2nccc(-c3ccc(N4CCN(CCN)CC4)nc3)n2)cc(OC)c1OC` returned a melting point of 88 to 89 °C.

Regarding `C=Cn1cc(C(=O)O)c(=O)c2cc(F)c(N3CCN(C)CC3)cc21`, the melting point turned out to be 242 °C.

Compound `CCC1(CCCCCl)C(=O)Nc2ccc(C)cc21` (centres undefined) showed a melting point of 79 to 80 °C.

Regarding `CN1C(=O)c2cnc(-c3ccccc3)nc2N(C(=O)CN2CCOCC2)c2ccccc21`, the melting point lay in the range of 180 to 181 °C.

In turn, `CNc1nc(OC)c(C(=O)OC)cc1Br` had a melting point of 136 to 138 °C.

With `Cc1cn(C2CC(O)C(C(O)I)O2)c(=O)[nH]c1=O` (centres undefined), the melting point lay in the range of 172 to 175 °C.

The compound `CC#CCOc1ccc(S(=O)(=O)NC(COCCBr)C(=O)OC)cc1` (centres undefined) returned a melting point of 45 to 46 °C.

In the case of `CCCCCCNC(=O)c1cnc(OCC(O)CNC(C)C)nc1` (centres undefined), the melting point fell in the range of 114 to 115 °C.

As to `CCCC(=O)Nc1nc2ccccc2n2c(CC)nnc12`, the melting point lay within 185 to 187 °C.

In the case of `CC(C)(C)OC(=O)CN(Cc1ccccn1)c1cc(C(F)(F)F)c(Br)c(C(F)(F)F)c1`, the melting point fell in the range of 77 to 78 °C.

Compound `CCCc1c(C)c2ccc(O)cc2oc1=O` came in with a melting point of 160 to 173 °C.

As to `O=C(O)c1cc2c(cc1C(=O)O)C(c1ccccc1)(C(F)(F)F)c1cc(C(=O)O)c(C(=O)O)cc1O2`, the melting point is 276 °C.

With `CS(=O)(=O)ON=C(Cl)c1ccc(Cl)cc1`, the melting point is 80 to 82 °C.

Turning to `CN1C(=O)C(c2ccc(OC(F)(F)F)cc2)(C23CC4CC(CC(C4)C2)C3)N=C1N` (centres undefined), the melting point came out at 125 °C.

In the case of `CCCCOC(=O)C(C)Oc1ccc(COc2ccc(Cl)cc2)cc1` (centres undefined), the melting point worked out at 66 °C.

`COc1cccc(NC(=O)NC2N=C(c3ccc(C)cc3)c3ccccc3N(C)C2=O)c1` (centres undefined): the melting point lay within 240 to 242 °C.

Regarding `COC(=O)c1ccc(N2CCCC2=O)cc1`, the melting point lay within 118 to 120 °C.

In turn, `CCCCCc1ccc(C(=O)CCCCC(=O)O)cc1` registered a melting point of 84 to 86 °C.

On to `CNC(Cc1c[nH]c2c(Cl)cccc12)C(=O)O` (centres undefined), for which the melting point fell in the range of 208 to 211 °C.

Turning to `Cc1cc(C(N)=O)ncc1C(c1c(F)ccc(F)c1F)S(=O)(=O)CCC(F)(F)F` (centres undefined), the melting point was 190 to 191 °C.

`CC(C)Nc1c(-c2ccc(S(C)(=O)=O)cc2)cnn(CC(F)(F)F)c1=O` gave a melting point of 173 to 174 °C.

`Cc1c(C)c(N2CCN(c3nncs3)CC2)c(C)c2c1OC(C)C2` (centres undefined) showed a melting point of 203 to 205 °C.

The compound `CCOC(=O)c1cn(C(C)(C)C)c2nc(N3CC4CCC(C3)N4C(=O)C(F)(F)F)c(F)cc2c1=O` gave a melting point of 205 °C.

Turning to `CC1(Cn2c(=O)oc3ccc(-c4ccccc4)cc32)Cn2cc([N+](=O)[O-])nc2O1` (centres undefined), the melting point is 254 to 255 °C.

As to `Cc1sc2c(c1C)C(c1ccc(Cl)cc1)=NC(CC(=O)Nc1ccncc1)c1nnc(C)n1-2` (centres undefined), the melting point fell in the range of 237 to 239 °C.

In turn, `CCN1C(=O)C(C)(C)C(=O)N(C)c2cc(OCCCn3cc(I)c(=O)c4ccccc43)ccc21` displayed a melting point of 97 to 106 °C.

For the origin of these results see a melting point compilation (Tetko et al.; mined from patent text by program, amines drawn as free bases though some values may be those of a salt).
